“Also recorded” adds a separate entry of the source. Read-outs that look alike come from different tables or passages of the source.
How the values were obtained:
Aqueous solubility test = assay type: physicochemical; conditions: for solubility: thermodynamic from solid
Description: The pH of the mixtures was held constant during the study. Excess amounts or a known amount of each component are added to 1 or 0.5 ml of buffer solution and the mixtures were stirred at rt for 48 hours or less, filtered (0.45 um Millipore) and analyzed by HPLC.

[1] = target: T1, recombinant human 17β-HSD2 (Homo sapiens, UniProt P37059); experiment: Inhibition of recombinant human 17β-HSD2; assay type: biochemical; conditions: inhibitor 1 μM; 50 nM estradiol, 1 mM NADH, 30 min at RT
T1 construct: made in house; host or cells: Sd9 (Sf9) insect cells, baculovirus (Bac to Bac Expression System)
T1 sequence (P37059 1-387): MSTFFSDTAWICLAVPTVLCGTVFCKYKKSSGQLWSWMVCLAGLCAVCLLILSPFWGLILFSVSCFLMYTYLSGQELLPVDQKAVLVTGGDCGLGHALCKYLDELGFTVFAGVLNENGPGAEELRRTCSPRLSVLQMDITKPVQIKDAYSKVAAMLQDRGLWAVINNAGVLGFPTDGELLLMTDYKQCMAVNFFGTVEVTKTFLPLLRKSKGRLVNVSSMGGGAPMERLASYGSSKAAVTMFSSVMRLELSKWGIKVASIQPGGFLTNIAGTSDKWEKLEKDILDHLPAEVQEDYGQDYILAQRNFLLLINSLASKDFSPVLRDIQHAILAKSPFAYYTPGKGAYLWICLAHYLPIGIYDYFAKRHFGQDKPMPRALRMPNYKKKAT
Description: 17β-HSD2 Production and Isolation:
Similarly to 17β-HSD1 the Recombinant baculovirus was generated by the “Bac to Bac Expression System” (Invitrogen). Recombinant bacmid was transfected to Sd9 insect cells using “Cellfectin Reagent” (Invitrogen). 60 h later cells were harvested and supernatant were fractionated by the following protocol: • cells were dissolved into 40 ml of A-buffer (40 mM TRIS, pH8.0, 20% glycerol, 20 μM NAD, 0.4 mM PMSF, 150 mM NaCl, 0.5% dodecyl-β-maltoside+protease inhibitor cocktail) • cells were sonicated • lysate was incubated on ice for 15 min • lysate was centrifuged 5000 rpm 15 min, +4° C. • centrifugation of the supernatant 180 000 g 30 min, +4° C. • pellet was dissolved into 8 ml of A-buffer • not resuspended material was removed by centrifugation 5000 rpm 15 min, +4° C. • the clear supernatant was divided into 100 μl aliquots and were stored frozen until determination of enzymatic activity.
The amount of 17β-HSD2 was analysed by immunoblotting and total protein concentration of each extract batch was determined.
Assay—Inhibition of Recombinant Human 17β-HSD2:
Protein homogenate (4 μg/ml) was incubated in 20 mM KH2PO4 pH 8.5 with 50 nM estradiol (including 800 000 cpm/ml of ^3H-estradiol) and 1 mM […] for 30 min at RT, in the presence of the potential inhibitor at concentrations 1 μM or 0.1 μM. Inhibitor stock solutions were prepared in DMSO. Final concentration of DMSO was adjusted to 1% in all samples. The enzyme reaction was stopped by addition of 10% trichloroacetic acid (final concentration). Samples were centrifuged in a microtiter plate at 4000 rpm for 10 min. Supernatants were applied to reverse phase HPLC on a Waters Symmetry C18 column, equipped with a Waters Sentry Guard column. […] Radioactivity was monitored in the eluate by a Packard Flow Scintillation Analyzer. Total radioactivity for estrone and estradiol were determined in each sample and percent conversion of estradiol to estrone was calculated according to the following formula:
(§1) [formula] Percent inhibition was calculated flowingly: % inhibition=100−% conversion

[2] = target: T2, recombinant human 17β-HSD1 (Homo sapiens, UniProt P14061); experiment: Inhibition of recombinant human 17β-HSD1; assay type: biochemical; conditions: inhibitor 1 μM; 30 nM estrone, 1 mM NADPH, 30 min at RT; read-out: 17β-HDS1 Inhibition % at 1 μM
T2 construct: made in house; host or cells: Sd9 (Sf9) insect cells, baculovirus (Bac to Bac Expression System)
T2 sequence (P14061 1-328): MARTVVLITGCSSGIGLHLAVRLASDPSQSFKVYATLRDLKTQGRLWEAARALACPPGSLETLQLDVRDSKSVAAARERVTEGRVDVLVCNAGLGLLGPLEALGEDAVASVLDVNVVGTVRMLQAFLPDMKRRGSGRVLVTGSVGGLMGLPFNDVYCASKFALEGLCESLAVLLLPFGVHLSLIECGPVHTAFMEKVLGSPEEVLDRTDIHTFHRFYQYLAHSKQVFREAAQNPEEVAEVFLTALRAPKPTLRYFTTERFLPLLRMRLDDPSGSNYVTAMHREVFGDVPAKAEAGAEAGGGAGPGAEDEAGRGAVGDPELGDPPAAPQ
Description: 17β-HSD1 Production and Isolation:
Recombinant baculovirus was generated by the “Bac to Bac Expression System” (Invitrogen). Recombinant bacmid was transfected to Sd9 insect cells using “Cellfectin Reagent” (Invitrogen). 60 h later cells were harvested; the microsomal fraction was isolated as described by Puranen, T. J., Poutanen, M. H., Peltoketo, H. E., Vihko, P. T. and Vihko, R. K. (1994) Site-directed mutagenesis of the putative active site of human 17β-hydroxysteroid dehydrogenase type 1. Biochem. J. 304: 289-293. Aliquots were stored frozen until determination of enzymatic activity.
Assay—Inhibition of Recombinant Human 17β-HSD1:
Protein homogenate (0.1 μg/ml) was incubated in 20 mM KH2PO4 pH 7.4 with 30 nM estrone (including 800 000 cpm/ml of ^3H-estrone) and 1 mM NADPH for 30 min at RT, in the presence of the potential inhibitor at concentrations 1 μM or 0.1 μM. Inhibitor stock solutions were prepared in DMSO. Final concentration of DMSO was adjusted to 1% in all samples. The enzyme reaction was stopped by addition of 10% trichloroacetic acid (final concentration). Samples were centrifuged in a microtiter plate at 4000 rpm for 10 min. Supernatants were applied to reverse phase HPLC on a Waters Symmetry C18 column, equipped with a Waters Sentry Guard column. Isocratic HPLC runs were performed at RT at a flow rate of 1 ml/min in acetonitrile:water 48:52 as running solvent. Radioactivity was monitored in the eluate by a Packard Flow Scintillation Analyzer. Total radioactivity for estrone and estradiol were determined in each sample and percent conversion of estrone to estradiol was calculated according to the following formula:
as §1

[3] = Metabolic stability assay; assay type: in vitro ADME; conditions: human liver homogenate or microsomes
Description: The in vitro metabolic stability of the parent compounds was determined for exemplified compounds using human liver microsome and homogenate incubations. The incubation time points used with or without appropriate cofactors were 0 min and 60 min. Samples were collected at both time points and substrates were detected using LC/PDA/TOF-MS. In vitro metabolic stability (% remaining after 60 min in human liver homogenate or microsomes) of the compounds were calculated and the results are summarized in Table 4.

**Q.** With `CO/N=C1\C[C@@H](CCC(=O)Nc2ncc(C)s2)C2C3CCc4cc(OP(=O)(O)O)c(C(C)(C)C)cc4C3CC[C@]12C` (stereo partly drawn) [Compound 1] as the compound, how does the “aqueous solubility (in words)” value (Aqueous solubility test; Table 5) read?
**A.** The value was “improved aqueous solubility”.

**Q.** For `CO/N=C1\C[C@@H](CCC(=O)Nc2ncc(C)s2)C2C3CCc4cc(OP(=O)([O-])[O-])c(C(C)(C)C)cc4C3CC[C@]12C.[Na+].[Na+]` (stereo partly drawn) [Compound 1a], which “aqueous solubility (in words)” value (Aqueous solubility test; Table 5, disodium salt) is on record?
**A.** The value was “improved aqueous solubility; also recorded: significant aqueous solubility”.

**Q.** And the “Aqueous solubility, buffer at pH 7.4” value (Aqueous solubility test; buffer at pH 7.4, rt)?
**A.** Its value is “over 32 mg/ml”.

**Q.** For `CO/N=C1\C[C@@H](CCC(=O)Nc2ncc(C)s2)C2C3CCc4cc(OCOP(=O)(O)O)c(C(C)(C)C)cc4C3CC[C@]12C` (stereo partly drawn) [Compound 15, (((13S,15R)-2-(tert-butyl)-17[(E)-methoxyimino]-13-methyl-15-(3-((5-methylthiazol-2-yl)amino)-3-oxopropyl)-7,8,9,11,12,13,14,15,16,17-decahydro-6H-cyclopenta[a]phenanthren-3-yl)oxy)methyl dihydrogen phosphate], which “aqueous solubility (in words)” value (Aqueous solubility test) is on record?
**A.** The value was “significant aqueous solubility”.

**Q.** With `Cc1cnc(NC(=O)CC[C@@H]2C/C(=N\O)[C@@]3(C)CCC4c5cc(C(C)(C)C)c(O)cc5CCC4C23)s1` (stereo partly drawn) [VIV-3, 3-{(13S,15R)-2-tert-Butyl-3-hydroxy-17-[(E)-hydroxyimino]-13-methyl-7,8,9,11,12,13,14,15,16,17-decahydro-6H-cyclopenta[a]phenanthren-15-yl}-N-(5-methylthiazol-2-yl)propanamide] as the compound, how does the inhibition at 1 µM [1] read?
**A.** The inhibition at 1 µM was 41%.

**Q.** What about the inhibition at 1 µM [2] of the same compound?
**A.** Its inhibition at 1 µM is 95%.

**Q.** What about the “In vitro metabolic stability, % remaining after 60 min” value [3] of the same compound?
**A.** Its value is 100%.

**Q.** With `Cc1cnc(NC(=O)CC[C@@H]2CC(=O)[C@@]3(C)CCC4c5ccc(O)cc5CCC4C23)s1` (stereo partly drawn) [VII, reference compound] as the compound, how does the “In vitro metabolic stability, % remaining after 60 min” value [3] read?
**A.** The value was 13%.

**Q.** Which “aqueous solubility (in words)” value (Aqueous solubility test; Table 5) does the source give for `CO/N=C1\C[C@@H](CCC(=O)Nc2ncc(C)s2)C2C3CCc4cc(OCOP(=O)(O)O)c(C(C)(C)C)cc4C3CC[C@]12C.[Na].[Na]` (stereo partly drawn) [Compound 15a, (((13S,15R)-2-(tert-butyl)-17[(E)-methoxyimino]-13-methyl-15-(3-((5-methylthiazol-2-yl)amino)-3-oxopropyl)-7,8,9,11,12,13,14,15,16,17-decahydro-6H-cyclopenta[a]phenanthren-3-yl)oxy)methyl dihydrogen phosphate disodium salt] here?
**A.** Its value is “improved aqueous solubility”.

**Q.** And the solubility (Aqueous solubility test; buffer solution, aqueous buffer, buffer at pH 7.4, rt, read-out: Aqueous solubility, buffer at pH 7.4)?
**A.** Its solubility is over 30000 µg/mL.

**Q.** Which inhibition at 1 µM [1] does the source give for `CCO/N=C1\C[C@@H](CCC(=O)Nc2ncc(C)s2)C2C3CCc4cc(O)c(C(C)(C)C)cc4C3CC[C@]12C` (stereo partly drawn) [VIV-4, 3-{(13S,15R)-2-tert-Butyl-17-[(E)-ethoxyimino]-3-hydroxyl-13-methyl-7,8,9,11,12,13,14,15,16,17-decahydro-6H-cyclopenta[a]phenanthren-15-yl}-N-(5-methylthiazol-2-yl)propanamide] here?
**A.** The inhibition at 1 µM was 8%.

**Q.** And the inhibition at 1 µM [2]?
**A.** The inhibition at 1 µM was 89%.

**Q.** With `CO/N=C1\C[C@@H](CCC(=O)Nc2ncc(C)s2)C2C3CCc4cc(O)c(C(C)(C)C)cc4C3CC[C@]12C` (stereo partly drawn) [VIV-1, 3-{(13S,15R)-2-tert-Butyl-3-hydroxy-17-[(E)-methoxyimino]-13-methyl-7,8,9,11,12,13,14,15,16,17-decahydro-6H-cyclopenta[a]phenanthren-15-yl}-N-(5-methylthiazol-2-yl) propanamide] as the compound, how does the inhibition at 1 µM [1] read?
**A.** The inhibition at 1 µM was 14%.

**Q.** And the inhibition at 1 µM [2]?
**A.** The inhibition at 1 µM was 86%.

**Q.** What about the solubility (Aqueous solubility test; pH 7.4, aqueous buffer) of the same compound?
**A.** Its solubility is under 0.52 µg/mL.

**Q.** What about the “In vitro metabolic stability, % remaining after 60 min” value [3] of the same compound?
**A.** Its value is 100%.

**Q.** Which results are given for `CO/N=C1\C[C@@H](CCC(=O)Nc2ncc(C)s2)C2C3CCc4cc(OC(=O)CN(C)C)c(C(C)(C)C)cc4C3CC[C@]12C.Cl` (stereo partly drawn) [Compound 4a, (13S,15R)-2-(tert-butyl)-17[(E)-methoxyimino]-13-methyl-15-(3-((5-methylthiazol-2-yl)amino)-3-oxopropyl)-7,8,9,11,12,13,14,15,16,17-decahydro-6H-cyclopenta[a]phenanthren-3-yl dimethylglycinate hydrochloride]?
**A.** aqueous solubility (in words) (Aqueous solubility test; Table 5): improved aqueous solubility; solubility (Aqueous solubility test; aqueous buffer, buffer at pH 7.4, rt, read-out: Aqueous solubility, buffer at pH 7.4): 7.99 µg/mL

— US10626140B2, “Prodrugs of 17β-HSD1-inhibitors” (FORENDO PHARMA LTD, priority 2014, dated 2020)
